Experimental data reported in patent US6753171B2, “Site-specific cell perforation technique” (Center for Advanced Science and Technology Incubation, Ltd., priority 1998, dated 2004).

What was measured:
nerve cell line PC12 = experiment: Measurement of membrane resistance and membrane potential following light exposure (patch clamp); format: cell-based; settings: for change in cell membrane resistance/membrane potential following light exposure: 363 nm argon ion laser
Procedure: Since there is a need to monitor cellular level micro membrane damages, including the recovering process within seconds to a few minutes, the intermembrane potential of the cell membrane, or the ionic current passing through the cell membrane was measured using the patch clamp method, which is an electrophysiology experiment technique.
The photosensitizer BAT was dispersed in HEPES (25 mM,pH7.4) buffer.
Cells were incubated at room temperature within an electrophysiology experimental culture medium.
2H2O, 2.4 mM; MgSO4. 7H2O, 1.3 mM; glucose 10 mM, in which the pH was adjusted to […] by finally adding NaOH. To prevent any influence due to evaporation, the electrophysiology experiment culture medium was changed every 40 min at the latest by a pipette.
BAT was added to a final concentration of 49 μM. Exposed light quantity was in three stages, being 0.47 J/cm^2, 0.94 J/cm^2, and 1.57 J/cm^2.
The solution within the patch electrodes had the composition of KCl 132 mM, NaCl, 8 mM, MgCl2, 2 mM, HEPES 30 mM, Na2ATP 4 mM, GTP 0.3 mM, and EGTA 0.5 mM, in which the pH was adjusted to 7.3 by finally adding NaOH.
As the excitation power source, 50 mW, 363 nm argon ion laser standardly equipped within a confocal laser scanning microscope (CLSM) MRC-1000 UV (BIO-RAD laboratories) was used. 1/16th (¼^th to the direction of the X axis and Y axis, 117 μm×170 μm) of the full screen of the microscope is scanned with the above-described laser beams. Adjustments were done so that the whole image of the patched target cell came into this area. 50 mW laser beam is a 100% output. According to the scanning speed, the exposed duration was selected from 1/16, ¼, 1/32 sec. The light reduction by the lens was also utilized. When the zoom function was used, the light is scanned on a concentrated area smaller than the normal area, and therefore, the light quantity per unit area increases in proportion to the square of the zoom magnification. Since the excitation light has to pass through the plastic of the collagen-coated dish before reaching the cells, there is a necessity to consider light reduction.
Also, in the excitation light exposure, a TTL signal coupled with an electrophysiological recording is suitably transmitted to the excitation light source, to synchronize the exposure and electrical measurement.
At the start of the electrophysiological experiment, the cell membrane potential was maintained between −80 to −60 mV. The resistance of the patch electrode was 3˜4 MΩ, and the above described solution was filled into electrodes, and used.
As for the amplifier for cell membrane potential measurement, Axopatch 1-D (Axon Instruments) was used. The membrane resistance was calculated by the change in membrane potential when a 1 Hz rectangular hyperpolarizing current was passed through for 350 mili sec. […] The measured potential/current value was analyzed by Axoscope ver. 1.1 software (Axon Instruments).
Membrane resistance reflects membrane permeation inhibiting capacity, and membrane potential reflects the active ion transport capacity due to the functions of various intermembrane ion transportation systems and ion permeation inhibiting capacity.
A microinjector was connected to a micro glass pipette held by a micromanipulator, and BAT dispersed solution (BAT concentration was 2 mM, aqueous solvent) was filled into this micro glass pipette. The tip of this glass pipette was connected to a patch electrode and setup within 200 μm proximity of the cells in which the membrane potential/membrane resistance was to be measured. BAT dispersed solution was released by compressing the micro glass pipette to attach BAT onto the cell membrane of target cells.

PC12 cells [1] = experiment: Microinjection treatment using site-specific membrane disruption: success rate of Lucifer Yellow injection; format: cell-based; settings: BAT 100 μM in injection solution, capillary approach speed 7 μm s^-1, n=30
Procedure: To determine the success or failure of microinjection treatment, Lucifer Yellow CH(LY), a water-soluble fluorescent dye, was added to the injection solution. After injection treatment, if a yellow fluorescence of LY origin was observed within the cell by a fluorescent microscope, then, the injection treatment was judged to have been successful. The variation of the success rate of cell injection was evaluated by the presence or absence of the photosensitizer BAT within the injection solution, and the presence or absence of a BAT excitation light exposure.
Normally, to make microinjection successful, a glass capillary having an opening with a diameter of a few hundred nanometers should be contacted with cells at high speed, to instantly penetrate/perforate the cell membrane or the nucleus membrane physically. […] The micromanipulator was attached to a fluorescence microscope (OLYMPUS OPTICAL, IX70 fluorescence microscope spec). Light of a 100 W […], which is the epi-illumination fluorescence light source equipped in the microscope, was treated by transmitting through an ultraviolet ray excitation filter set (OLYMPUS OPTICAL, U-MWU mirror unit), and the resulting ultraviolet light was used as the excitation source of the photosensitizer. […]

PC12 cells [2] = experiment: Cell survival rate after injection treatment (LY maintaining rate); format: cell-based
Procedure: The survival rate of cells to which microinjection treatment by a physical shear force was given, and that for photosensitizing microinjection treated cells were compared.
LY was injected into cells by microinjection. In dead cells in which the cell membrane had collapsed, LY rapidly diffuses, and staining is lost (Cell, 14, 741-759 (1978)). Therefore, LY maintaining rate of injection treated cells was used as an indicator of cell survival rate, and the survival rate after 3 to 6 days following injection treatment was compared.

[3] = Solubility of BAT in aqueous solution; format: physicochemical; settings: within acidic aqueous solutions (bivalent positive charge)
Excerpt: The thiophene oligomer having amino-methyl residue at the terminal, has a high solubility compared with other derivatives of the same type because of this amino-methyl residue. Solubility changes with the dissociation state of this amino-methyl residue. […] In aqueous solutions near a pH region suitable for the body (around 7.4), it has a feature of having both positively-charged monovalent BAT maintaining a high solubility, and non-charged BAT that agglutinates easily into a colloid state. Under this pH condition, by perfusing cells within a BAT-dispersed solution, this molecule can easily attach onto the cell surface. The hydrophilicity of BAT molecule is a novel feature that is not seen in either modified thiophene oligomers starting with α-terthienyl, or in other molecules designed as conductive high molecular monomers.

Q: With `NCc1ccc(-c2ccc(-c3ccc(CN)s3)s2)s1` [BAT, 5′5″-bis(aminomethyl)-2,2′:5′,2″-terthiophene] as the compound, how does the “change in cell membrane resistance/membrane potential following light exposure” value (nerve cell line PC12; BAT 49 μM, light quantity 0.47 J/cm^2 (A)) read?
A: The value was “a big change was not seen”.

Q: What about the “change in cell membrane resistance/membrane potential following light exposure” value (nerve cell line PC12; BAT 49 μM, light quantity 0.94 J/cm^2 (B)) of the same compound?
A: Its value is “a decrease in cell membrane resistance/depolarization of the membrane potential occurred”.

Q: And the “change in cell membrane resistance/membrane potential following light exposure” value (nerve cell line PC12; BAT 49 μM, light quantity 1.57 J/cm^2 (C))?
A: Its value is “both disappeared”.

Q: And the “time to disappearance of cell membrane resistance/membrane potential” value (nerve cell line PC12; BAT 49 μM, light quantity 1.57 J/cm^2 (C), after a few second lag period)?
A: Its value is 8 s.

Q: And the “cell membrane potential after laser exposure” value (nerve cell line PC12; BAT 2 mM dispersed solution sprayed onto target cells by micro glass pipette (Example 4))?
A: The value was “depolarization of the cell membrane potential was observed”.

Q: What about the “change in membrane resistance when only the axon of the cell was exposed to laser beams” value (nerve cell line PC12; only the axon exposed) of the same compound?
A: Its value is “a similar change in membrane resistance was observed”.

Q: What about the “success rate of the injection” value (PC12 cells [1]; 2 min ultraviolet exposure) of the same compound?
A: The value was 80%.

Q: What about the “success rate of the injection” value (PC12 cells [1]; no light exposure) of the same compound?
A: The value was 13%.

Q: And the “cell survival rate (LY retention rate)” value (PC12 cells [2]; BAT+LY without UV, 3rd day following treatment)?
A: Its value is 30%.

Q: And the “cell survival rate (LY retention rate)” value (PC12 cells [2]; BAT+LY+UV photosensitizing injection, three to six days following injection treatment)?
A: The value was 90%.

Q: And the solubility [3]?
A: Its solubility is “dissolves easily”.
